# Test system: PRISM DNA-barcoded human tumour cell lines
# Test: PRISM pooled cell viability assay;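 on PRISM AUC: 8 threefold dilutions from 10 µM with 5 days of exposure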
# Format: cell-based
# Parameters: AUC (PRISM viability) / AUC (PRISM): unit not given beside the values
# Conditions: for AUC (PRISM viability): WT; for PRISM AUC: KRAS MUT
# Description: Cells were then lysed in TCL mRNA lysis buffer, and then PCR with reverse transcription was performed. Detection of the barcodes and univariate and multivariate analysis was then performed as previously described. Data analysis is described in the Supplementary Methods. Up-to-date code for our analysis is at the github link: https://github.com/cmap/dockerized_mts.
# For every gene with non-silent mutations in at least four cell-lines, we compared the AUC values between cells with and without those mutations using a t-test. This analysis was carried out for: (i) the full dataset; (ii) excluding cell lines with non-silent KRAS mutations; and (iii) excluding cell lines that have either KRAS or NRAS non-silent mutations.
structure (smiles),measurement,setting,value
CCn1c(-c2cc(N3CCN(C4CC4)CC3)cnc2[C@H](C)OC)c2c3cc(ccc31)-c1csc(n1)C[C@H](NC(=O)[C@H]1[C@@H]3COC[C@@H]31)C(=O)N1CCC[C@H](N1)C(=O)OCC(C)(C)C2 [RMC-7977],AUC (PRISM viability),HUG1N_STOMACH,0.8055
same,AUC (PRISM viability),HUH1_LIVER,0.7529
same,AUC (PRISM viability),HUH6_LIVER,0.7376
same,AUC (PRISM viability),HUH7_LIVER,0.8557
same,AUC (PRISM viability),HUH28_BILIARY_TRACT,0.8029
same,PRISM AUC,HUPT3_PANCREAS,0.1666
same,PRISM AUC,HUPT4_PANCREAS,0.2071
same,PRISM AUC,IALM_LUNG,0.3346
same,AUC (PRISM viability),IGR1_SKIN,0.9019
same,AUC (PRISM viability),IGR37_SKIN,0.7982
same,AUC (PRISM viability),IGR39_SKIN,0.9854
same,AUC (PRISM viability),IGROV1_OVARY,0.7964
same,AUC (PRISM viability),IM95_STOMACH,0.4996
same,AUC (PRISM viability),IPC298_SKIN,0.1645
same,AUC (PRISM viability),ISHIKAWAHERAKLIO02ER_ENDOMETRIUM,0.7979
same,AUC (PRISM viability),ISTMES2_PLEURA,1
same,AUC (PRISM viability),J82_URINARY_TRACT,0.7456
same,AUC (PRISM viability),JEKO1_HAEMATOPOIETIC_AND_LYMPHOID_TISSUE,0.8585
same,AUC (PRISM viability),JHH1_LIVER,0.2992
same,AUC (PRISM viability),JHH4_LIVER,0.7822
same,AUC (PRISM viability),JHH5_LIVER,0.337
same,AUC (PRISM viability),JHH6_LIVER,0.6328
same,AUC (PRISM viability),JHH7_LIVER,0.6689
same,AUC (PRISM viability),JHOC5_OVARY,0.6127
same,AUC (PRISM viability),JHOM1_OVARY,0.7183
same,AUC (PRISM viability),JHOS2_OVARY,0.6659
same,AUC (PRISM viability),JHUEM2_ENDOMETRIUM,0.722
same,AUC (PRISM viability),JIMT1_BREAST,0.6067
same,AUC (PRISM viability),JJN3_HAEMATOPOIETIC_AND_LYMPHOID_TISSUE,0.5546
same,AUC (PRISM viability),JL1_PLEURA,0.8348
same,AUC (PRISM viability),JM1_HAEMATOPOIETIC_AND_LYMPHOID_TISSUE,0.8697
same,AUC (PRISM viability),JMSU1_URINARY_TRACT,0.7968
same,AUC (PRISM viability),JURKAT_HAEMATOPOIETIC_AND_LYMPHOID_TISSUE,1
same,AUC (PRISM viability),JURLMK1_HAEMATOPOIETIC_AND_LYMPHOID_TISSUE,0.263
same,AUC (PRISM viability),JVM3_HAEMATOPOIETIC_AND_LYMPHOID_TISSUE,0.6896
same,AUC (PRISM viability),K029AX_SKIN,0.9507
same,AUC (PRISM viability),K562_HAEMATOPOIETIC_AND_LYMPHOID_TISSUE,0.4372
same,AUC (PRISM viability),KALS1_CENTRAL_NERVOUS_SYSTEM,0.7464
same,AUC (PRISM viability),KARPAS299_HAEMATOPOIETIC_AND_LYMPHOID_TISSUE,0.6122
same,PRISM AUC,KARPAS620_HAEMATOPOIETIC_AND_LYMPHOID_TISSUE,0.3529
same,AUC (PRISM viability),KATOIII_STOMACH,0.4955
same,AUC (PRISM viability),KCL22_HAEMATOPOIETIC_AND_LYMPHOID_TISSUE,0.4527
same,AUC (PRISM viability),KE37_HAEMATOPOIETIC_AND_LYMPHOID_TISSUE,0.4418
same,AUC (PRISM viability),KE39_STOMACH,0.6732
same,AUC (PRISM viability),KELLY_AUTONOMIC_GANGLIA,0.7861
same,PRISM AUC,KHM1B_HAEMATOPOIETIC_AND_LYMPHOID_TISSUE,0.496
same,AUC (PRISM viability),KLE_ENDOMETRIUM,0.8932
same,AUC (PRISM viability),KMBC2_URINARY_TRACT,0.2167
same,AUC (PRISM viability),KMH2_HAEMATOPOIETIC_AND_LYMPHOID_TISSUE,0.7624
same,AUC (PRISM viability),KMRC1_KIDNEY,1
same,AUC (PRISM viability),KMRC3_KIDNEY,0.8631
same,AUC (PRISM viability),KMRC20_KIDNEY,0.5322
same,AUC (PRISM viability),KMS11_HAEMATOPOIETIC_AND_LYMPHOID_TISSUE,0.6264
same,AUC (PRISM viability),KMS18_HAEMATOPOIETIC_AND_LYMPHOID_TISSUE,0.2086
same,AUC (PRISM viability),KMS27_HAEMATOPOIETIC_AND_LYMPHOID_TISSUE,0.3359
same,AUC (PRISM viability),KMS34_HAEMATOPOIETIC_AND_LYMPHOID_TISSUE,0.4857
same,AUC (PRISM viability),KNS42_CENTRAL_NERVOUS_SYSTEM,0.8285
same,AUC (PRISM viability),KNS60_CENTRAL_NERVOUS_SYSTEM,0.8415
same,AUC (PRISM viability),KNS62_LUNG,0.4354
same,AUC (PRISM viability),KNS81_CENTRAL_NERVOUS_SYSTEM,0.5354
same,PRISM AUC,KOPN8_HAEMATOPOIETIC_AND_LYMPHOID_TISSUE,0.2801
same,PRISM AUC,KP2_PANCREAS,0.2975
same,PRISM AUC,KP3_PANCREAS,0.3778
same,PRISM AUC,KP4_PANCREAS,0.4423
same,AUC (PRISM viability),KS1_CENTRAL_NERVOUS_SYSTEM,0.4806
same,AUC (PRISM viability),KU1919_URINARY_TRACT,0.2273
same,AUC (PRISM viability),KURAMOCHI_OVARY,1
same,AUC (PRISM viability),KYM1_SOFT_TISSUE,0.3526
same,AUC (PRISM viability),KYO1_HAEMATOPOIETIC_AND_LYMPHOID_TISSUE,0.2345
same,AUC (PRISM viability),KYSE30_OESOPHAGUS,0.402
same,AUC (PRISM viability),KYSE70_OESOPHAGUS,0.7015
same,AUC (PRISM viability),KYSE140_OESOPHAGUS,0.5343
same,AUC (PRISM viability),KYSE150_OESOPHAGUS,0.4708
same,AUC (PRISM viability),KYSE180_OESOPHAGUS,0.5999
same,AUC (PRISM viability),KYSE270_OESOPHAGUS,0.564
same,PRISM AUC,KYSE410_OESOPHAGUS,0.2588
same,AUC (PRISM viability),KYSE450_OESOPHAGUS,0.34
same,AUC (PRISM viability),KYSE510_OESOPHAGUS,0.4594
same,AUC (PRISM viability),KYSE520_OESOPHAGUS,0.4602
same,PRISM AUC,L33_PANCREAS,0.3993
same,AUC (PRISM viability),L363_HAEMATOPOIETIC_AND_LYMPHOID_TISSUE,0.6953
same,AUC (PRISM viability),LAMA84_HAEMATOPOIETIC_AND_LYMPHOID_TISSUE,0.3291
same,AUC (PRISM viability),LCLC103H_LUNG,0.6805
same,AUC (PRISM viability),LI7_LIVER,0.4821
same,AUC (PRISM viability),LK2_LUNG,0.4878
same,AUC (PRISM viability),LMSU_STOMACH,0.6242
same,AUC (PRISM viability),LN18_CENTRAL_NERVOUS_SYSTEM,0.6382
same,AUC (PRISM viability),LN229_CENTRAL_NERVOUS_SYSTEM,0.6899
same,AUC (PRISM viability),LN382_CENTRAL_NERVOUS_SYSTEM,0.6351
same,AUC (PRISM viability),LNCAPCLONEFGC_PROSTATE,0.7528
same,AUC (PRISM viability),LNZ308_CENTRAL_NERVOUS_SYSTEM,0.4353
same,AUC (PRISM viability),LOUNH91_LUNG,0.4098
same,PRISM AUC,LOVO_LARGE_INTESTINE,0.4131
same,AUC (PRISM viability),LOXIMVI_SKIN,1
same,PRISM AUC,LS180_LARGE_INTESTINE,0.2098
same,AUC (PRISM viability),LS411N_LARGE_INTESTINE,1
same,PRISM AUC,LS513_LARGE_INTESTINE,0.2181
same,PRISM AUC,LU99_LUNG,0.2453
same,AUC (PRISM viability),LUDLU1_LUNG,0.5495
same,AUC (PRISM viability),LXF289_LUNG,0.5423
same,AUC (PRISM viability),M059K_CENTRAL_NERVOUS_SYSTEM,0.9015
same,AUC (PRISM viability),MALME3M_SKIN,0.9889
same,AUC (PRISM viability),MC116_HAEMATOPOIETIC_AND_LYMPHOID_TISSUE,0.9825
same,PRISM AUC,MCAS_OVARY,0.3593
same,AUC (PRISM viability),MCF7_BREAST,0.8582
same,AUC (PRISM viability),MDAMB175VII_BREAST,0.5383
same,PRISM AUC,MDAMB231_BREAST,0.478
same,AUC (PRISM viability),MDAMB361_BREAST,0.7391
same,AUC (PRISM viability),MDAMB435S_SKIN,0.9518
same,AUC (PRISM viability),MDAMB436_BREAST,0.9067
same,AUC (PRISM viability),MDAMB453_BREAST,0.3963
same,AUC (PRISM viability),MDAMB468_BREAST,0.5525
same,AUC (PRISM viability),MDST8_LARGE_INTESTINE,0.7229
same,AUC (PRISM viability),MELHO_SKIN,0.9921
same,AUC (PRISM viability),MELJUSO_SKIN,0.3578
same,AUC (PRISM viability),MESSA_SOFT_TISSUE,0.9559
same,AUC (PRISM viability),MEWO_SKIN,0.6173
same,AUC (PRISM viability),MFE280_ENDOMETRIUM,0.5252
same,AUC (PRISM viability),MFE296_ENDOMETRIUM,0.9033
same,AUC (PRISM viability),MFE319_ENDOMETRIUM,0.8155
same,AUC (PRISM viability),MG63_BONE,0.7861
same,AUC (PRISM viability),MHHES1_BONE,0.8525
same,AUC (PRISM viability),MHHNB11_AUTONOMIC_GANGLIA,0.4191
same,PRISM AUC,MIAPACA2_PANCREAS,0.1568
same,AUC (PRISM viability),MKN1_STOMACH,0.5983
same,AUC (PRISM viability),MKN7_STOMACH,0.4769
same,AUC (PRISM viability),MKN45_STOMACH,0.1583
same,AUC (PRISM viability),MKN74_STOMACH,0.7438
same,AUC (PRISM viability),MOLM13_HAEMATOPOIETIC_AND_LYMPHOID_TISSUE,0.4032
same,AUC (PRISM viability),MOLP2_HAEMATOPOIETIC_AND_LYMPHOID_TISSUE,0.65
same,AUC (PRISM viability),MOLT16_HAEMATOPOIETIC_AND_LYMPHOID_TISSUE,0.6383
same,AUC (PRISM viability),MONOMAC1_HAEMATOPOIETIC_AND_LYMPHOID_TISSUE,0.7673
same,AUC (PRISM viability),MONOMAC6_HAEMATOPOIETIC_AND_LYMPHOID_TISSUE,0.6964
